The values below come from patent US20190015327A1, “COMPOSITIONS AND METHODS FOR TREATING CONDITIONS RELATED TO LACK OF BLOOD SUPPLY, SHOCK AND NEURONAL INJURIES” (VIVACELLE BIO, INC., priority 2015, published 2019).

The conditions of series [1]: 1 atm; from The Engineering Toolbox; cited from earlier work.
The nature of series [2]: Nitric oxide uptake / NO content by mass spectrometry. As to conditions: 100 ppm nitric oxide in helium, 60 min equilibration.
Method: Some samples (1 ml each) were left open to air in 2.0 ml tubes for 30 minutes prior to dissolved gas analysis. In other experiments the emulsion was placed into a 15 ml tube. The headspace was filled with the gas under study and the gas was allowed to enter the emulsion by equilibration over 60 minutes with the tube on its side to increase the gas emulsion interaction. 50 μL drawn from each of these fluids were injected into a Sievers purge vessel at 37° C. containing 36 ml of a mildly acidic solution consisting of 32 ml of 1M HCL and 4 ml of 0.5M ascorbic acid. […] Signals generated at m/z=32 upon injection of RL and lipid emulsion samples were integrated using Peakfit and compared to those obtained with distilled water.
In another set of experiments we measured the uptake of nitric oxide by a commercially available 20% soybean oil emulsion, Liposyn III 20%. This emulsion contains 20% soybean oil, 1.2% egg phospholipids and 2.5% glycerin in water. Using NaOH pH was adjusted to 8.3. […] 100 ppm nitric oxide in helium was used to purge the hesdspace for two minutes taking care not to bubble the fluid. For sixty minutes the sample was allowed to reach gas-liquid equilibrium with the tube placed on its side to maximize gas-emulsion contact.
The uptake of NO and O2 by a commercial 20% soybean oil emulsion, Liposyn, was measured using mass spectrometry. […] To approximate field conditions, no warming or respiratory support was provided. Next, 55% of blood volume was removed within 2 minutes. […] The time of clinical death was defined as the cessation of respiration. […] In 5 mice a volume of Ringer's lactate equal to the volume of blood removed was administered via the internal jugular vein over 2 minutes immediately after the loss of chest wall movement. […] In 6 mice a volume of Ringer's lactate equal to the volume of blood removed was administered via the carotid artery over 2 minutes. […] In the next set of experiments, infusing Ringers' lactate was delayed for 3 minutes. […] A volume of emulsion equal to the volume of blood that had been removed was infused.
For series [3] the following is noted: published value; cited from earlier work.

Several values for one entry are separate records, joined by “and”; a condition that tells them apart may be missing. Identical values can stand only once.

As for `O` [Water], in series [1], the “Oxygen Content at 25° C. and Sea level Pressure” value is 8.3 mg/L. Moreover, in series [2], the “NO Content, Mean” value is 1.77 mol/L; the “NO Content, single samples” value is 2.29 mol/L and 1.52 mol/L and 1.63 mol/L and 1.72 mol/L and 1.69 mol/L.
As to hemoglobin, in series [3], the oxygen release time was 17.5 ms.
